Data taken from US4609736A, “Rhodanines useful as a therapeutic agent for diabetic complications” (Kaken Pharmaceutical Co., Ltd., priority 1983, dated 1986).
Read-outs that look alike come from different tables or passages of the source.

What was measured:
[1] = system: thrombin-induced aggregation of washed rabbit platelets; assay: Platelet aggregation inhibiting activity (thrombin-induced aggregation of washed rabbit platelets); format: cell-based, rabbit (albino, white local breed); conditions: for IC50: Oryctolagus cuniculus, Platelet, Table 2; for platelet aggregation inhibiting activity relative to Dipyridamole (Persantine): times that of Dipyridamole
Procedure: Blood samples were collected from the auricular blood vessel of albino rabbits (white local breed), and washed platelets were prepared therefrom by the method of Baenziger et al. [N. L. Baenziger and P. W. Majerus, Methods in Enzymology, 31, 149 to 155 (1974)]. The platelets were suspended in a 15 mM Tris-hydrochloric acid buffer in a final concentration of 6×10^8 cells/ml (Tris: tris(hydroxymethyl)aminomethane). Each test compound was added thereto and incubation was carried out at 37° C. for 2 minutes. Then, the platelets were stimulated by addition of thrombin (final concentration 0.2 unit/ml; made by Mochida Pharmaceutical Co.) and the aggregation inhibiting activity was estimated by observation of the aggregation reaction using an aggregometer (made by Briston Co.).
The results obtained are shown in Table 2 in terms of IC50 (50% inhibition concentration in M).

aldose reductase = target: T1, aldose reductase (Rattus norvegicus, UniProt P07943); assay: Aldose reductase inhibiting activity; format: biochemical, rat (Wistar strain male, eye lens); conditions: rat lens crude enzyme; DL-glyceraldehyde 10 mM, NADPH 0.104 mM, pH 6.2; Table 3; read-out: IC50 (50% inhibition concentration), aldose reductase
T1 construct: the supernatant was used as the crude enzyme solution; from tissue; host or cells: eye lens of male Wistar rats, 10,000 g supernatant of the homogenate
Procedure: Thus, Wistar strain male rats were sacrificed by decapitation, the lenses were excised and homogenized with a 0.1M phosphate buffer [pH 6.8; containing 1 mM of mercaptoethanol and 1 mM of nicotinamide-adenine dinucleotide phosphate (NADP)]. The homogenate was then centrifuged at 10,000 g for 15 minutes and the supernatant was used as the crude enzyme solution.
To this buffer solution, there was added 15 μl of each of solutions of each test compound in varied concentrations, followed by addition of 25 μl of the crude enzyme solution prepared in advance, to thereby initiate the reaction.

[2] = Acute toxicity in mice (oral); conditions: mouse, in vivo, oral gavage in 10% gum arabic, 2 weeks
[3] = 2 min, washed rabbit platelets 6×10^8 cells/ml, thrombin 0.2 unit/ml, 37° C., 2 minutes incubation, read-out: IC50 (50% inhibition concentration), platelet aggregation
[4] = read-out: concentration that inhibited the thrombin-induced aggregation of washed rabbit platelets by 50%

Row | IC50 [1, 3] [µM] | IC50 (aldose reductase) [µM] | SMILES | platelet aggregation inhibiting activity (in words) [1] | IC50 [1, 4] [µM] | platelet aggregation inhibiting activity relative to Dipyridamole (Persantine) [1] | LD50 at 336 h [2] [mg/kg]
1 | > 300 | 0.2 | CCC=C1SC(=S)N(CC(=O)O)C1=O [Compound No. 1, 3-Carboxymethyl-5-propylidenerhodanine] |  |  |  | 
2 | 30 | 0.75 | C=CC=C1SC(=S)N(CC(=O)O)C1=O [Compound No. 6, 3-Carboxymethyl-5-allylidenerhodanine] | noticeably strong platelet aggregation inhibiting activity | 20 to 40 | about 10 times | 
3 | > 300 | 0.14 | O=C(O)CN1C(=O)C(=CCCCCl)SC1=S [compound 2, 3-Carboxymethyl-5-(4-chlorobutylidene)rhodanine] |  |  |  | 
4 | > 300 | 0.1 | CC(C)(C)C=C1SC(=S)N(CC(=O)O)C1=O [compound 3, 3-Carboxymethyl-5-(2,2-dimethylpropylidene)rhodanine] |  |  |  | 
5 | > 300 | 0.13 | CCCCCC=C1SC(=S)N(CC(=O)O)C1=O [compound 5, 3-Carboxymethyl-5-n-hexylidenerhodanine] |  |  |  | 

Second part, the compound before the results:

Row | SMILES | IC50 [1, 3] [µM] | IC50 (aldose reductase) [µM] | platelet aggregation inhibiting activity (in words) [1] | IC50 [1, 4] [µM] | platelet aggregation inhibiting activity relative to Dipyridamole (Persantine) [1] | LD50 at 336 h [2] [mg/kg]
6 | CC=CC=C1SC(=S)N(CC(=O)O)C1=O [Compound No. 7, 3-Carboxymethyl-5-(2-butenylidene)rhodanine] | 20 | 0.07 | noticeably strong platelet aggregation inhibiting activity | 20 to 40 | about 10 times | 3500 to 5000
7 | O=C(O)CN1C(=O)C(=CC=CCCl)SC1=S [Compound No. 8, 3-Carboxymethyl-5-(4-chloro-2-butenylidene)rhodanine] | 20 | 0.13 | noticeably strong platelet aggregation inhibiting activity | 20 to 40 | about 10 times | 
8 | CCCC=CC=C1SC(=S)N(CC(=O)O)C1=O [Compound No. 10, 3-Carboxymethyl-5-(2-hexenylidene)rhodanine] | 30 | 0.04 | noticeably strong platelet aggregation inhibiting activity | 20 to 40 | about 10 times | 3500 to 5000
9 | CC=CC=CC=C1SC(=S)N(CC(=O)O)C1=O [Compound No. 11, 3-Carboxymethyl-5-(2,4-hexadienylidene)rhodanine] | 20 | 0.046 | noticeably strong platelet aggregation inhibiting activity | 20 to 40 | about 10 times | 3500 to 5000
10 | CC(C)=CCCC(C)=CCCC(C)=CCCC(C)=CC=C1SC(=S)N(CC(=O)O)C1=O [Compound No. 13, 3-Carboxymethyl-5-(3,7,11,15-tetramethyl-2,6,10,14-hexadecatetraenylidene)rhodanine] | 40 | 0.65 | noticeably strong platelet aggregation inhibiting activity | 20 to 40 | about 10 times | 3500 to 5000
11 | CCCCCCCCCCC=C1SC(=S)N(CC(=O)O)C1=O [compound 4, 3-Carboxymethyl-5-undecylidenerhodanine] | > 300 | 0.3 |  |  |  | 
12 | CC(C)=CC=C1SC(=S)N(CC(=O)O)C1=O [compound 9, 3-Carboxymethyl-5-(3-methyl-2-butenylidene)rhodanine] | > 400 | 0.1 |  |  |  | 
13 | CC(C)=CCCC(C)=CC=C1SC(=S)N(CC(=O)O)C1=O [compound 12, 3-Carboxymethyl-5-(3,7-dimethyl-2,6-octadienylidene)rhodanine] | > 300 |  |  |  |  | 3500 to 5000
